Values of other authors in patent US20020037290A1, “Compositions comprising heat shock proteins or alpha(2) macroglobulin, antigenic molecules and saponins, and methods of use thereof” (priority 2000, published 2002).

B1: gp96 derived from the UV6138: heat shock protein gp96(-peptide complex) preparation isolated from the UV-induced UV6138 mouse carcinoma (protein, UniProt P08113 22-802, looked up)
Endoplasmin: DDEVDVDGTVEEDLGKSREGSRTDDEVVQREEEAIQLDGLNASQIRELREKSEKFAFQAEVNRMMKLIINSLYKNKEIFLRELISNASDALDKIRLISLTDENALAGNEELTVKIKCDKEKNLLHVTDTGVGMTREELVKNLGTIAKSGTSEFLNKMTEAQEDGQSTSELIGQFGVGFYSAFLVADKVIVTSKHNNDTQHIWESDSNEFSVIADPRGNTLGRGTTITLVLKEEASDYLELDTIKNLVRKYSQFINFPIYVWSSKTETVEEPLEEDEAAKEEKEESDDEAAVEEEEEEKKPKTKKVEKTVWDWELMNDIKPIWQRPSKEVEEDEYKAFYKSFSKESDDPMAYIHFTAEGEVTFKSILFVPTSAPRGLFDEYGSKKSDYIKLYVRRVFITDDFHDMMPKYLNFVKGVVDSDDLPLNVSRETLQQHKLLKVIRKKLVRKTLDMIKKIADEKYNDTFWKEFGTNIKLGVIEDHSNRTRLAKLLRFQSSHHSTDITSLDQYVERMKEKQDKIYFMAGSSRKEAESSPFVERLLKKGYEVIYLTEPVDEYCIQALPEFDGKRFQNVAKEGVKFDESEKTKESREATEKEFEPLLNWMKDKALKDKIEKAVVSQRLTESPCALVASQYGWSGNMERIMKAQAYQTGKDISTNYYASQKKTFEINPRHPLIRDMLRRIKEDEDDKTVMDLAVVLFETATLRSGYLLPDTKAYGDRIERMLRLSLNIDPEAQVEEEPEEEPEDTSEDAEDSEQDEGEEMDAGTEEEEEETEKESTEKDEL
modifications: bound tumor peptides
notes: heat shock protein gp96(-peptide complex) preparation isolated from the UV-induced UV6138 mouse carcinoma
B2: gp96 derived from the UV6139: gp96-peptide complex derived from UV6139SJ carcinoma cells (protein, UniProt P08113 22-802, looked up)
Endoplasmin: B1 Endoplasmin
modifications: bound tumor peptides
notes: gp96-peptide complex derived from UV6139SJ carcinoma cells
B3: liver-derived gp96: gp96-peptide complex derived from normal liver (protein, UniProt P08113 22-802, looked up)
Endoplasmin: B1 Endoplasmin
modifications: bound peptides

Experiments:
[1] = test system: bovine serum albumin and cytochrome b5; details: Kensil et al., 1991, cited from earlier work; for level of antibody response induced: mice, antigens bovine serum albumin and cytochrome b5; for IgG2a response to cytochrome b5: saponin doses of 20 μg
[2] = test system: murine antiidiotype antibody MELIMMUNE-1; details: melanoma patients; Livingston et al., 1995; cited from earlier work
[3] = mouse, in vivo; cited from earlier work
UV6138 carcinoma = details: cited from earlier work
UV6139SJ carcinoma [4] = details: cited from earlier work
UV6139SJ carcinoma [5] = details: prior experiments, cited from earlier work; for tumor growth, monitored as the average of two perpendicular diameter measurements: U.S. Pat. No. 5,837,251, established UV6139SJ carcinoma
[6] = previously shown, U.S. Pat. No. 5,837,251
[7] = prior result of U.S. Pat. No. 5,837,251, resistant mice out of mice challenged

Molecule | level of antibody response induced [1] | IgG2a response to cytochrome b5 [1] | tumor growth, monitored as the average of two perpendicular diameter measurements (UV6139SJ carcinoma [5]) | other results
QS-17 | comparable to other commonly used adjuvants | stimulate IgG2a response | – | –
QS-18 | comparable to other commonly used adjuvants | stimulate IgG2a response | – | –
QS-21 | comparable to other commonly used adjuvants | stimulate IgG2a response | – | serological response to MELIMMUNE-1 [2]: significantly increased; toxicity in mice [3]: least toxic
B1 | – | – | – | immunity to the UV6138 challenge (UV6138 carcinoma; [6]): rendered the mice immune; resistance conferred against the UV6138 cells (UV6138 carcinoma; [7]): 6 out of 7
B2 | – | – | significantly retarded | immunity to the UV6139SJ challenge (UV6139SJ carcinoma [4]; [6]): conferred resistance; resistance conferred against the UV6139SJ cells (UV6139SJ carcinoma [4]; [7]): 2 out of 4; kinetics of tumor growth in treated and control mice (UV6139SJ carcinoma [5]; effect appears to diminish after treatment is terminated): immediate inhibitory effect on tumor growth
B3 | – | – | not | –
